Where two headings read alike, the source gives them in different places.
What was measured:
velvetleaf (ABUTH) = settings: 21 days after treatment
Method: In this example, the herbicidal effectiveness of selected dicamba salts prepared in accordance with Example 1 was evaluated in greenhouse testing. The herbicidal effectiveness data set forth herein report “Weed killing efficacy” as a percentage following a standard procedure in the art which reflects a visual assessment of plant mortality and growth reduction by comparison with untreated plants, made by technicians specially trained to make and record such observations. Such measurements are relied upon and regularly reported by Monsanto Company in the course of its herbicide business.
The following procedure was used for testing compositions of this example to determine herbicidal effectiveness.
Seeds of velvetleaf (ABUTH) were planted in 85 mm square pots in a soil mix which was previously steam sterilized and prefertilized with a 14-14-14 NPK slow release fertilizer at a rate of 3.6 kg/m^3. The pots were placed in a greenhouse with sub-irrigation. About one week after emergence, seedlings were thinned as needed, including removal of any unhealthy or abnormal plants, to create a uniform series of test pots.
The plants were maintained for the duration of the test in the greenhouse where they received a minimum of 14 hours of light per day. If natural light was insufficient to achieve the daily requirement, artificial light with an intensity of approximately 475 microeinsteins was used to make up the difference. Exposure temperatures were not precisely controlled but averaged about 27° C. during the day and about 21° C. during the night. Plants were sub-irrigated throughout the test to ensure adequate soil moisture levels.
Application of herbicide salt solutions were made by spraying with a track sprayer fitted with a 9501E nozzle calibrated to deliver a spray volume of approximately 38 liters per hectare (l/ha). After treatment, pots were returned to the greenhouse until ready for evaluation.
For evaluation of herbicidal effectiveness, all plants in the test were examined by a single practiced technician, who recorded percent control, a visual measurement of the effectiveness of each treatment by comparison with untreated plants. […] Control of 85% or more is in most cases considered acceptable for normal herbicide use. […] The weed killing efficacy was evaluated 21 days after the treatment.

[1] = Tube test: dicamba volatilized from spray solution into air; type: physicochemical; settings: air about 35° C., about 40% RH, 24 hours
Method: Volatility reduction may be quantified experimentally by methods known in the art. In one method the volatility of solutions containing a herbicide salt can be measured in the gas phase (air) via tube tests. In a tube test, a sample of the herbicide solution is placed in a test tube that has been modified to allow air flow through the tube. A selective collection medium is attached to the outlet of the tube to collect volatilized herbicide. The collection medium is then analyzed for the respective herbicide. For further details see the Tube Test Protocol described in Example 2.
(§1) In this example, various salts of dicamba prepared in Example 1 were selected for volatility testing. As described below, spray solutions containing the selected dicamba salts were prepared and subjected to volatility testing via the tube test and/or humidome protocols. Typically, the spray solutions containing the selected dicamba salts also contained potassium glyphosate co-herbicide. Aqueous test spray solutions containing selected salts of dicamba and potassium glyphosate were prepared by mixing a solution of dicamba salt with a solution of potassium glyphosate salt and adjusting the relative proportion and/or diluting with water to arrive at the desired concentration of dicamba and glyphosate.
To measure the dicamba concentration in the gas phase (air) volatilized from the spray solutions, 10 mL samples of each solution were placed into a 50 mL plastic centrifuge tube with one hole approximately ⅛ in (3.2 mm) diameter drilled into the tube at the mark between 20 mL and 30 mL lines. A 22 mm×30 mm polyurethane foam (PUF), cut from a 76 mm length, available from SKC Inc., catalog #P22692, was placed into a glass tube of approximately 20 mm diameter with parafilm wrapped around the outside to obtain a snug fit into the top of the centrifuge tube. A hose was connected to the other end of the glass tube leading to a vacuum line. The air flow was regulated to approximately 2 L/min using a flow controller. Air was pulled through the tube at approximately 2 L/min for 24 hours. Note that the air conditions of flow rate, temperature, pressure and composition (e.g., relative humidity) are not narrowly critical as long as the various samples are analyzed under similar conditions. For instance, air at from about 5° C. to about 40° C., from about 0.5 to about 1.5 bar pressure, from about 0% to about 95% relative humidity, and at a flow rate of from about 0.1 to 10 L/min-mL sample could be suitably used for volatility analysis. In this test, the air pulled through the tubes was at about 35° C. and about 40% relative humidity. The PUF was removed from the glass tube, extracted with 20 mL methanol and the resulting solution analyzed for dicamba concentration using liquid chromatography-mass spectroscopy (LC-MS) methods known in the art.
For comparison, samples of spray solutions containing 2 wt. % a.e. of the diglycolamine salt of dicamba (i.e., CLARITY) were also subjected to the tube test protocol.
(§2) The reduction in volatility is calculated relative to the volatility of the samples containing the diglycolamine salt of dicamba.

[2] = Humidome test: dicamba volatilized into air from spray solution applied to soil; type: physicochemical; settings: sprayed on soil at 10 GPA, 24 hours, vs CLARITY without glyphosate
Excerpt: In another method, the volatility of solutions containing a herbicide salt can be evaluated by measuring herbicide concentrations in the gas phase (air) through air sampling in humidome plant growth chambers, which are maintained at constant temperature and humidity. For further details see the Humidome Protocol described in Example 2.
as §1
Humidomes were obtained from Hummert International (Part Nos 14-3850-2 for humidomes and 11-3050-1 for 1020 flat tray) and modified by cutting a 2.2 cm diameter hole on one end approximately 5 cm from the top to allow for insertion of a glass air sampling tube (22 mm OD) containing a polyurethane foam (PUF) filter. The sampling tube was secured with a VITON o-ring on each side of the humidome wall. The air sampling tube external to the humidome was fitted with tubing that was connected to a vacuum manifold immediately prior to sampling.
The flat tray beneath the humidome was filled with 1 liter of sifted dry or wet 50/50 soil (50% Redi-Earth and 50% US 10 Field Soil) to a depth of about 1 cm. To measure the dicamba concentration in the gas phase (air) volatilized from the spray solutions, samples of the spray solutions were sprayed over the soil in the humidome using a track sprayer at a rate of 10 gallons per acre (GPA). To avoid contamination of the sides of the flat tray, each tray was nested in an empty tray prior to spraying.
The flat tray bottom containing the dicamba formulation on soil was covered with a humidome lid and the lid was secured with clamps. The assembled humidomes were placed in a temperature and humidity controlled environment and connected to a vacuum manifold through the air sampling line. Air was drawn through the humidome and PUF at a rate of 2 liters per minutes (LPM) for 24 hours at which point the air sampling was stopped. The humidomes were then removed from the controlled environment and the PUF filter was removed. The PUF filter was extracted with 20 mL of methanol and the solution was analyzed for dicamba concentration using LC-MS methods known in the art.
For comparison, samples of spray solutions containing the diglycolamine salt of dicamba (i.e., CLARITY) at approximately the same weight percent a.e. as the tested dicamba salt sprays were subjected to the humidome tests.
as §2

[3] = dicamba salt 2 wt. % a.e., potassium glyphosate 6 wt. % a.e., vs 2 wt. % a.e. CLARITY without glyphosate
[4] = dicamba salt 0.6 wt. % a.e., potassium glyphosate 0.9 wt. % a.e.
[5] = dicamba salt 0.6 wt. % a.e., potassium glyphosate 1.2 wt. % a.e.

Compound	Volatility Reduction Over DGA Dicamba Spray (%) Tube Test [1, 3] [%]	Volatility Reduction Over DGA Dicamba Spray (%) Humidome Test [2, 4] [%]	also measured
CCc1ncc[nH]1.COc1c(Cl)ccc(Cl)c1C(=O)O [2-ethyl imidazolium dicamba]	–	–	Weed killing efficacy (%) (velvetleaf (ABUTH); application rate 140 g a.e./ha): 38.3%; Weed killing efficacy (%) (velvetleaf (ABUTH); application rate 280 g a.e./ha): 67.5%; Weed killing efficacy (%) (velvetleaf (ABUTH); application rate 560 g a.e./ha): 80.8%
CCc1nc(C)c[nH]1.COc1c(Cl)ccc(Cl)c1C(=O)O [2-ethyl-4-methyl imidazolium dicamba]	–	–	Weed killing efficacy (%) (velvetleaf (ABUTH); application rate 140 g a.e./ha): 30.0%; Weed killing efficacy (%) (velvetleaf (ABUTH); application rate 280 g a.e./ha): 62.5%; Weed killing efficacy (%) (velvetleaf (ABUTH); application rate 560 g a.e./ha): 83.3%
COc1c(Cl)ccc(Cl)c1C(=O)O.Cc1ncc[nH]1 [2-methyl imidazolium dicamba]	–	–	Weed killing efficacy (%) (velvetleaf (ABUTH); application rate 140 g a.e./ha): 40.0%; Weed killing efficacy (%) (velvetleaf (ABUTH); application rate 280 g a.e./ha): 66.7%; Weed killing efficacy (%) (velvetleaf (ABUTH); application rate 560 g a.e./ha): 85.0%
C1CCC(N2CCNCC2)CC1.COc1c(Cl)ccc(Cl)c1C(=O)O [Salt 3]	75	–	–
COc1c(Cl)ccc(Cl)c1C(=O)O.OCCN1CCNCC1 [Salt 4]	69	–	–
CCCCN1CCNCC1.COc1c(Cl)ccc(Cl)c1C(=O)O [Salt 5]	70	–	–
CCN1CCNCC1.COc1c(Cl)ccc(Cl)c1C(=O)O [Salt 6]	83	–	–
CC(C)c1ncc[nH]1.COc1c(Cl)ccc(Cl)c1C(=O)O [Salt 9]	65	63	Volatility Reduction Over DGA Dicamba Spray (%) Humidome Test [2, 5]: 67%
CCc1nc(C)c[nH]1.COc1c(Cl)ccc(Cl)c1C(=O)O [Salt 10]	72	86	Volatility Reduction Over DGA Dicamba Spray (%) Tube Test ([1]; dicamba salt 10 wt. % a.e., no potassium glyphosate, vs 2 wt. % a.e. CLARITY): 88%; Volatility Reduction Over DGA Dicamba Spray (%) Humidome Test [2, 5]: 85%; Volatility Reduction Over DGA Dicamba Spray (%) Humidome Test ([2]; dicamba salt 2.4 wt. % a.e., potassium glyphosate 4.8 wt. % a.e.): 86%
CCc1ncc[nH]1.COc1c(Cl)ccc(Cl)c1C(=O)O [Salt 11]	67	67	Volatility Reduction Over DGA Dicamba Spray (%) Humidome Test [2, 5]: 60%
COc1c(Cl)ccc(Cl)c1C(=O)O.Cc1ncc[nH]1 [Salt 12]	–	46	Volatility Reduction Over DGA Dicamba Spray (%) Humidome Test [2, 5]: 50%
COc1c(Cl)ccc(Cl)c1C(=O)O.Cc1c[nH]c(-c2ccccc2)n1 [Salt 14]	–	92	–
CCCN1CCC(=O)CC1.COc1c(Cl)ccc(Cl)c1C(=O)O [Salt 16]	20	–	–
CC(C)CN1CCC(=O)CC1.COc1c(Cl)ccc(Cl)c1C(=O)O [Salt 17]	57	–	–
C1CCN(C2CCNCC2)CC1.COc1c(Cl)ccc(Cl)c1C(=O)O.COc1c(Cl)ccc(Cl)c1C(=O)O [Salt 19]	23	–	–
C(CC1CCNCC1)CC1CCNCC1.COc1c(Cl)ccc(Cl)c1C(=O)O.COc1c(Cl)ccc(Cl)c1C(=O)O [Salt 22]	60	68	–
CN1CCN(C)CC1.COc1c(Cl)ccc(Cl)c1C(=O)O [Salt 23]	23	–	–
COc1c(Cl)ccc(Cl)c1C(=O)O.OCCN1CCN(CCO)CC1 [Salt 24]	57	76	–

From US10334849B2, “Salts of carboxylic acid herbicides” (Monsanto Technology LLC, priority 2011, dated 2019)
